According to patent publication US20100036088A1, “Selective poly-N-substituted glycine antibiotics” (priority 2008, published 2010):
Square brackets hold non-standard residues; d marks the D form. Peptide text beside a SMILES is read from it. Gly(N-CH2CH2-imidazol-4-yl) = O=C(O)CNCCc1c[nH]cn1; Nspe = C[C@H](NCC(=O)O)c1ccccc1; Nlys = NCCCCNCC(=O)O

How the values were obtained:
[1] = tested on: B. subtilis BR151; type: cell-based; settings: Table 1
Text: (§1) An initial set of 15 ampetoid analogs was synthesized to determine whether peptoids are affected by structural and sequence modifications in a manner consistent with AMP activities. The designs for ampetoids in this library were derived from two antibacterial and selective amphipathic dodecamers, 1 and 2. Peptoid 1 [H-(Nlys-Nspe-Nspe)4—NH2] is composed of 2/3 Nspe, the peptoid analog of phenylalanine, and 1/3 Nlys, the peptoid analog of lysine (see FIG. 1 for the structures of representative peptoid monomers and corresponding N-substituents). Peptoid 2 [H-(Nlys-Nssb-Nspe)4—NH2] contains 1/3 isoleucine-like Nssb monomers in place of Nspe. The variant sequences were designed to effect changes in chirality, length, hydrophobicity, charge, and amphipathicity. All of these compounds were tested for antibacterial activity against representative BSL1 Gram-negative (E. coli JM109) and Gram-positive (B. subtilis BR151) bacterial strains. As an initial measure of selectivity, the lytic activity of the peptoids was determined against human erythrocytes. Table 1 summarizes the sequences synthesized, the solvent composition at RP-HPLC elution as a relative measure of molecular hydrophobicity, and antibacterial and hemolytic activities.
(§2) Antibacterial assays. MICs were determined according to CLSI M7-A6 protocols in a 96-well microtiter plate. In test wells, 50 μL bacterial inoculum (5×10^5 CFU/ml) in Mueller-Hinton broth (MHB) was added to 50 μL peptoid solution in MHB (prepared by 1:2 serial dilutions). Positive controls contained 50 μL inoculum and 50 μL MHB without peptoid. […] MIC values reported were reproducible between three independent experimental replicates, each consisting of two parallel trials. Broad-spectrum antimicrobial susceptibility testing was performed against BSL2 pathogens by Nova Biologicals, Inc. (Conroe, Tex.).

[2] = tested on: E. coli JM109; type: cell-based
Text: as §1, §2

[3] = tested on: human erythrocytes; experiment: Hemolysis assay; type: cell-based
How it was run: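 Peptoid serial dilutions in PBS pH 7.4 were combined with an equal volume of 20 vol % washed human red cells (heparinised blood) for 1 h at 37 °C. After dilution and pelleting at 1200 g, released haemoglobin in supernatant was read at A350, scaled between PBS and 0.2 vol % Triton X-100 controls.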

[4] = tested on: A549 lung epithelial cells; experiment: MTS assay, metabolic inhibition
Description: The biocompatibility of selected oligomers with A549 lung epithelial cells was evaluated using the MTS [3-(4,5-dimethylthiazol-2-yl)-5-(3-carboxymethoxyphenyl)-2-(4-sulfophenyl)-2H-tetrazolium] assay.
MTS Assays. A549 carcinoma-derived lung epithelial cells (ATTC CCL-185) were cultured in Ham's F12K media (ATTC, Manassas, Va.). A peptoid solution plate (100 μL/well) was prepared by serial dilution of aqueous peptoid stocks in media. Peptoid solutions were transferred onto a 96-well plate of day-old cell monolayers containing 100 μL/well media with ˜5000 cells/well. MTS reagent (Promega Corporation, Madison, Wis.) (40 μL/well) was added to each well and the plate was incubated at 37° C. for 3 h, after which absorbance at 490 nm was determined. Percent inhibition was determined as [1−(A−Atest blank)/(Acontrol−Ablank)]×100, where A is the absorbance of the test well and Acontrol the average absorbance of wells with cells exposed to media and MTS (no peptoid). Atest blank (media, MTS, and peptoid) and Ablank (media and MTS) were background absorbances measured in the absence of cells. The average of six replicates are reported, and error bars show one standard deviation.

[5] = tested on: B. subtilis (ATCC 6633); type: cell-based; settings: ATCC 6633
How it was run: (§3)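 MICs by broth microdilution per CLSI M7-A6 in cation-adjusted Mueller-Hinton broth, using 2:1 serial dilutions of peptoid and a bacterial inoculum of 1×10^6 CFU/mL. Values reproducible over three experiments, each with two parallel trials.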

[6] = tested on: E. coli (ATCC 35218); type: cell-based; settings: ATCC 35218
How it was run: as §3

[7] = tested on: Staphyloccus aureus (ATCC #25923); experiment: Murine intraperitoneal infection model; type: in vivo; settings: mouse, 4 mg/kg I.P.; eleven mice treated with 1-Nhis6,12
Description: Using a murine peritoneal injection mouse model, the ability of peptoids to treat infection was evaluated in vivo. The results from three separate studies of peptoid 1 and two of peptoid 1-Nhis6,12 against saline treated controls are shown in FIG. 7. The horizontal line represents the geometric mean of each population.
Murine intraperitoneal infection model. Bacteria was prepared by inoculating 5 mL of MHB with a single colony of Staphyloccus aureus (ATCC #25923) from a freshly streaked plate and grown overnight at 37 C. The following morning, the bacteria was subcultured by diluting 1/3 in MHB and grown for approximately 1.5 hours. The bacteria were then diluted 10-fold in a 5% mucin in PBS solution and thoroughly mixed. A sample was reserved to later determine the amount of bacteria the mice received.
Mice were weighed, marked, and injected I.P. with 200 uL of S. aureus inoculum. Four hours post infection, mice were treated I.P. with 4 mg/kg peptoid (˜100 ug per mouse). The infection is allowed to proceed overnight. Mice were euthanized by CO2 asphyxiation after 24 hours, and the peritoneal cavity was exposed and lavaged with 5 mL PBS. The lavage was mixed and reserved on ice until plating. […] Colonies were counted the following day, and the CFU/ml of each sample was calculated. […]

C[C@H](c1ccccc1)N(CC(N)=O)C(=O)CN(C(=O)CN(CCCCN)C(=O)CN(C(=O)CN(C(=O)CN(CCCCN)C(=O)CN(C(=O)CN(C(=O)CN(CCCCN)C(=O)CN(C(=O)CN(C(=O)CNCCCCN)[C@H](C)c1ccccc1)[C@H](C)c1ccccc1)[C@H](C)c1ccccc1)[C@H](C)c1ccccc1)[C@H](C)c1ccccc1)[C@H](C)c1ccccc1)[C@H](C)c1ccccc1 [1enantiomer]
B. subtilis MIC [1]: 0.88 µM | E. coli MIC ([2]; Table 1, E. coli JM109): 3.5 µM | HD10 (10% hemolytic dose) ([3]; Table 1, human erythrocytes): 16 µM | HD50 (50% hemolytic dose) ([3]; Table 1, human erythrocytes): 86 µM

C[C@@H](c1ccccc1)N(CC(=O)N(CCc1cnc[nH]1)CC(=O)N(CCCCN)CC(=O)N(CC(=O)N(CC(=O)N(CCCCN)CC(=O)N(CC(=O)N(CCc1cnc[nH]1)CC(N)=O)[C@@H](C)c1ccccc1)[C@@H](C)c1ccccc1)[C@@H](C)c1ccccc1)C(=O)CN(CCCCN)C(=O)CN(C(=O)CN(C(=O)CNCCCCN)[C@@H](C)c1ccccc1)[C@@H](C)c1ccccc1 [1-Nhis6,12] (H-[Nlys][Nspe][Nspe][Nlys][Nspe][Gly(N-CH2CH2-imidazol-4-yl)][Nlys][Nspe][Nspe][Nlys][Nspe][Gly(N-CH2CH2-imidazol-4-yl)]-NH2)
MICs ([2]; JM109): < 7 µM | HD10 [3]: >110/>110 μM | HD50 [3]: >110/>110 μM | HD10 (10% hemolytic dose) ([3]; red cells of human, 1 h): >110/>110 μM | HD50 (50% hemolytic dose) ([3]; red cells of human, 1 h): >110/>110 μM | ID10 relative to that of pexiganan [4]: 20 times | B. subtilis MIC [5]: 1.6 µM | E. coli MIC [6]: >50 µM | mice that died prematurely during the exposure period [7]: eight

C[C@@H](c1ccccc1)N(CC(N)=O)C(=O)CN(C(=O)CN(CCCCN)C(=O)CN(C(=O)CN(C(=O)CN(CCCCN)C(=O)CN(C(=O)CN(C(=O)CN(CCCCN)C(=O)CN(C(=O)CN(C(=O)CN(CCCCN)C(=O)CN(C(=O)CN(C(=O)CNCCCCN)[C@@H](C)c1ccccc1)[C@@H](C)c1ccccc1)[C@@H](C)c1ccccc1)[C@@H](C)c1ccccc1)[C@@H](C)c1ccccc1)[C@@H](C)c1ccccc1)[C@@H](C)c1ccccc1)[C@@H](C)c1ccccc1)[C@@H](C)c1ccccc1 [115 mer, H-(Nlys-Nspe-Nspe)5-NH2]
HD10 (10% hemolytic dose) ([3]; red cells of human, 1 h): 3 µM | HD50 (50% hemolytic dose) ([3]; red cells of human, 1 h): 19 µM | cytotoxicity (in words) ([4]; A549 cells, MTS assay, FIG. 2): no worse than pexiganan
